Laboratory results taken from PMC6032016, “Synthesis, biological evaluation, and molecular modelling studies of potent human neutrophil elastase (HNE) inhibitors” (Journal of Enzyme Inhibition and Medicinal Chemistry, 2018).
Several values for one entry are separate records, joined by “and”; a condition that tells them apart may be missing. Identical values can stand only once. Each block holds one compound with its values, some of them ahead of it.

What was measured:
[1] = target: T1, HNE (human neutrophil elastase) (Homo sapiens, UniProt P08246); experiment: HNE inhibition assay (fluorogenic substrate cleavage); format: biochemical; settings: for HNE inhibitory activity, result in words: highest concentration tested 50 µM; for IC50: mean ± SD of three independent experiments, NA: no inhibitory activity at the highest concentration tested (50 µM)
T1 construct: purchased Calbiochem
T1 sequence (P08246 30-267): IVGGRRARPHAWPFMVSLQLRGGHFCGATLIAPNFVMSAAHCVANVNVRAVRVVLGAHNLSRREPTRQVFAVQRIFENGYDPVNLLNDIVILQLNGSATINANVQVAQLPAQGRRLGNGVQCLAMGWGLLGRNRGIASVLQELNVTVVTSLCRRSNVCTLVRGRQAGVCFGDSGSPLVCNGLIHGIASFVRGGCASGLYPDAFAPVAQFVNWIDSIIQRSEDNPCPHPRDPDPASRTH
Protocol: Compounds were dissolved in 100% DMSO at 5 mM stock concentrations. […] The HNE inhibition assay was performed in black flat-bottom 96-well microtiter plates. Briefly, a buffer solution containing 200 mM Tris–HCl, pH 7.5, 0.01% bovine serum albumin, and 0.05% Tween-20 and 20 mU/mL of HNE (Calbiochem) was added to wells containing different concentrations of each compound. The reaction was initiated by addition of 25 µM elastase substrate (N-methylsuccinyl-Ala-Ala-Pro-Val-7-amino-4-methylcoumarin, Calbiochem) in a final reaction volume of 100 µl/well. Kinetic measurements were obtained every 30 s for 10 min at 25 °C using a Fluoroskan Ascent FL fluorescence microplate reader (Thermo Electron, MA) with excitation and emission wavelengths set at 355 and 460 nm, respectively. For all compounds tested, the concentration of inhibitor that caused 50% inhibition of the enzymatic reaction (IC50) was calculated by plotting % inhibition versus logarithm of inhibitor concentration (at least six points). The data are presented as the mean values of at least three independent experiments with relative standard deviations of <15%.

[2] = Analysis of compound stability: spontaneous hydrolysis in aqueous buffer; format: physicochemical; settings: 25 °C, 0.05 M phosphate buffer, pH 7.3; read-out: t1/2 for spontaneous hydrolysis (converted)
Protocol: Spontaneous hydrolysis of selected derivatives was evaluated at 25 °C in 0.05 M phosphate buffer, pH 7.3. Kinetics of hydrolysis were monitored by measuring changes in the absorbance spectra over time using a SpectraMax Plus microplate spectrophotometer (Molecular Devices, Sunnyvale, CA). Absorbance (At) at the characteristic absorption maxima of each compound was measured at the indicated times until no further absorbance decreases occurred (A∞)[52]. Using these measurements, we created semilogarithmic plots of log(At–A∞) versus time, and k′ values were determined from the slopes of these plots. Half-conversion times were calculated using t1/2 = 0.693/k′, as described previously[36]^,[37].

HNE [3] = target: T2, HNE (Homo sapiens, UniProt P08246); experiment: Reversibility of HNE inhibition over extended periods of time; format: biochemical; settings: 8 µM compound
T2 construct: purchased Calbiochem
T2 sequence (P08246 30-267): T1 sequence (P08246 30-267)
Protocol: The inhibition was maximal for up to 60 min with compound 7e and >120 min for the other tested compounds (4a, 4b, and 7a). However, inhibition by the compounds was eventually reversed, and full recovery of HNE activity was observed by 4 h after treatment with 8 µM of the compound (e.g. see Figure 6).
Figure 6. […] HNE was incubated with the indicated compounds (8 µM), and kinetic curves monitoring substrate cleavage catalysed by HNE over time are shown. Representative curves are from two independent experiments.

HNE [4] = target: T2, HNE; experiment: Kinetics of HNE inhibition (double-reciprocal Lineweaver–Burk plots); format: biochemical; settings: Lineweaver–Burk plot of fluorogenic substrate hydrolysis
From the text: To better understand the mechanism of action of these isoxazolone HNE inhibitors, we performed kinetic experiments.
Figure 7. Kinetics of HNE inhibition by compounds 7d and 8d. Representative double reciprocal Lineweaver–Burk plots are shown from three independent experiments.

SMILES: Cc1cccc(Cn2oc(=O)c(-c3ccccc3)c2C)c1 [Compound 2, 3-Methyl-2-(3-methylbenzyl)-4-phenylisoxazol-5(2H)-one]
- HNE inhibitory activity, result in words [1]: completely inactive

SMILES: Cc1c(-c2ccccc2)c(=O)on1S(=O)(=O)c1ccc(O)cc1 [Compound 3a, 2-((4-Hydroxyphenyl)sulfonyl)-3-methyl-4-phenylisoxazol-5(2H)-one]
- HNE inhibitory activity, result in words [1]: inactivity
- melting point: 50 to 51 °C

SMILES: Cc1c(-c2ccccc2)c(=O)on1S(=O)(=O)c1ccc(OC(=O)C(C)(C)C)cc1 [Compound 3b, 4-((3-Methyl-5-oxo-4-phenylisoxazol-2(5H)-yl)sulfonyl)phenyl pivalate]
- IC50 [1]: 0.059 ± 0.02 µM

SMILES: Cc1c(-c2ccccc2)c(=O)on1S(=O)(=O)c1ccc(NC(=O)C(C)(C)C)cc1 [Compound 3c, N-(4-((3-methyl-5-oxo-4-phenylisoxazol-2(5H)-yl)sulfonyl)phenyl)pivalamide]
- HNE inhibitory activity, result in words [1]: completely inactive

SMILES: Cc1cccc(C(=O)n2oc(=O)c(-c3ccccc3)c2C)c1 [Compound 4a, 3-Methyl-2-(3-methylbenzoyl)-4-phenylisoxazol-5(2H)-one]
- IC50 [1]: 0.077 ± 0.027 µM
- half-life [2]: 4.1 h
- time for which HNE inhibition was maximal (HNE [3]): > 120 min
- melting point: 85 to 88 °C

SMILES: Cc1c(-c2ccccc2)c(=O)on1C(=O)C1CC1 [Compound 4b, 2-(Cyclopropanecarbonyl)-3-methyl-4-phenylisoxazol-5(2H)-one]
- IC50 [1]: 0.059 ± 0.018 µM
- half-life [2]: 8.3 h
- time for which HNE inhibition was maximal (HNE [3]): > 120 min
- melting point: 83 to 86 °C

SMILES: Cc1ccc(C(=O)n2oc(=O)c(-c3ccccc3)c2C)cc1 [Compound 4c, 3-Methyl-2-(4-methylbenzoyl)-4-phenylisoxazol-5(2H)-one]
- IC50 [1]: 0.23 ± 0.034 µM
- melting point: 134 to 136 °C

SMILES: Cc1ccccc1C(=O)n1oc(=O)c(-c2ccccc2)c1C [Compound 4d, 3-Methyl-2-(2-methylbenzoyl)-4-phenylisoxazol-5(2H)-one]
- IC50 [1]: 0.35 ± 0.036 µM
- melting point: 99 to 100 °C

SMILES: Cc1c(-c2ccccc2)c(=O)on1C(=O)c1cccc(C(F)(F)F)c1 [Compound 4e, 3-Methyl-4-phenyl-2-(3-(trifluoromethyl)benzoyl)isoxazol-5(2H)-one]
- IC50 [1]: 0.2 ± 0.027 µM
- melting point: 96 to 97 °C

SMILES: Cc1c(-c2ccccc2)c(=O)on1C(=O)c1cccc(S(C)(=O)=O)c1 [Compound 4f, 3-Methyl-2-(3-(methylsulfonyl)benzoyl)-4-phenylisoxazol-5(2H)-one]
- IC50 [1]: 29.6 ± 7.2 µM
- melting point: 185 to 186 °C

SMILES: Cc1c(-c2ccccc2)c(=O)on1C(=O)c1cccc(C#N)c1 [Compound 4g, 3-(3-Methyl-5-oxo-4-phenyl-2,5-dihydroisoxazole-2-carbonyl)benzonitrile]
- IC50 [1]: 6.3 ± 1.4 µM
- melting point: 118 to 119 °C

SMILES: Cc1c(-c2ccccc2)c(=O)on1C(=O)c1ccc(C#N)cc1 [Compound 4h, 4-(3-Methyl-5-oxo-4-phenyl-2,5-dihydroisoxazole-2-carbonyl)benzonitrile]
- IC50 [1]: 11.4 ± 1.9 µM
- melting point: 178 to 180 °C (dec.)

SMILES: Cc1c(-c2ccccc2)c(=O)on1C(=O)c1ccc(NC(=O)C(C)(C)C)cc1 [Compound 4i, N-(4-(3-methyl-5-oxo-4-phenyl-2,5-dihydroisoxazole-2-carbonyl)phenyl)pivalamide]
- IC50 [1]: 8.5 ± 2.1 µM
- melting point: 132 to 134 °C

SMILES: Cc1c(-c2ccccc2)c(=O)on1C(=O)c1ccc(OC(=O)C(C)(C)C)cc1 [Compound 4l, 4-(3-Methyl-5-oxo-4-phenyl-2,5-dihydroisoxazole-2-carbonyl)phenyl pivalate]
- IC50 [1]: 0.48 ± 0.13 µM
- melting point: 130 to 132 °C

SMILES: Cc1cccc(C(=O)n2oc(=O)c(-c3ccccc3)c2-c2ccccc2)c1 [Compound 4m, 2-(3-Methylbenzoyl)-3,4-diphenylisoxazol-5(2H)-one]
- IC50 [1]: 10.1 ± 1.3 µM
- melting point: 160 to 163 °C

SMILES: O=C(C1CC1)n1oc(=O)c(-c2ccccc2)c1-c1ccccc1 [Compound 4n, 2-(Cyclopropanecarbonyl)-3,4-diphenylisoxazol-5(2H)-one]
- IC50 [1]: 17.2 ± 2.3 µM
- melting point: 100 to 103 °C

SMILES: Cc1cccc(C(=O)n2oc(=O)c(C)c2-c2ccccc2)c1 [Compound 4o, 4-Methyl-2-(3-methylbenzoyl)-3-phenylisoxazol-5(2H)-one]
- IC50 [1]: 13.6 ± 2.4 µM

SMILES: Cc1c(-c2ccccc2)n(C(=O)C2CC2)oc1=O [Compound 4p, 2-(Cyclopropanecarbonyl)-4-methyl-3-phenylisoxazol-5(2H)-one]
- IC50 [1]: 1.1 ± 0.14 µM

SMILES: Cc1cccc(C(=O)n2oc(=O)cc2-c2ccccc2)c1 [Compound 4q, 2-(3-Methylbenzoyl)-3-phenylisoxazol-5(2H)-one]
- IC50 [1]: 48.7 ± 3.3 µM

SMILES: O=C(C1CC1)n1oc(=O)cc1-c1ccccc1 [Compound 4r, 2-(Cyclopropanecarbonyl)-3-phenylisoxazol-5(2H)-one]
- IC50 [1]: 12.7 ± 2.7 µM

SMILES: Cc1cccc(C(=O)n2oc(=O)cc2-c2ccc([N+](=O)[O-])cc2)c1 [Compound 4s, 2-(3-Methylbenzoyl)-3-(4-nitrophenyl)isoxazol-5(2H)-one]
- HNE inhibitory activity, result in words [1]: completely inactive
- melting point: 177 to 180 °C (dec.)

SMILES: O=C(C1CC1)n1oc(=O)cc1-c1ccc([N+](=O)[O-])cc1 [Compound 4t, 2-(Cyclopropanecarbonyl)-3-(4-nitrophenyl)isoxazol-5(2H)-one]
- HNE inhibitory activity, result in words [1]: completely inactive

SMILES: CC(=O)Nc1ccc(-c2cc(=O)on2C(=O)c2cccc(C)c2)cc1 [Compound 4u, N-(4-(2-(3-methylbenzoyl)-5-oxo-2,5-dihydroisoxazol-3-yl)phenyl)acetamide]
- IC50 [1]: 28.6 ± 3.3 µM

Further lines, results first:

- IC50 [1]: 0.02 ± 0.009 µM
- half-life [2]: 7.7 h
- time for which HNE inhibition was maximal (HNE [3]): > 120 min
SMILES: Cc1ccc(-c2c(C)n(C(=O)c3cccc(C)c3)oc2=O)cc1 [Compound 7a, 3-Methyl-2-(3-methylbenzoyl)-4-(p-tolyl)isoxazol-5(2H)-one]

- IC50 [1]: 0.07 ± 0.02 µM
- time after which HNE inhibition was reversed (HNE [3]): ~30 min
- melting point: 108 to 110 °C
SMILES: Cc1cccc(C(=O)n2oc(=O)c(-c3ccc(C#N)cc3)c2C)c1 [Compound 7b, 4-(3-Methyl-2-(3-methylbenzoyl)-5-oxo-2,5-dihydroisoxazol-4-yl)benzonitrile]

- IC50 [1]: 0.21 ± 0.04 µM
- melting point: 152 to 154 °C
SMILES: Cc1cccc(C(=O)n2oc(=O)c(-c3ccc([N+](=O)[O-])cc3)c2C)c1 [Compound 7c, 3-Methyl-2-(3-methylbenzoyl)-4-(4-nitrophenyl)isoxazol-5(2H)-one]

- IC50 [1]: 0.05 ± 0.02 µM
- half-life [2]: 9.6 h
- time for which HNE inhibition was maximal (HNE [3]): up to 60 min
- melting point: 120 to 123 °C
SMILES: Cc1cccc(C(=O)n2oc(=O)c(-c3ccc(NC(=O)C4CC4)cc3)c2C)c1 [Compound 7e, N-(4-(3-methyl-2-(3-methylbenzoyl)-5-oxo-2,5-dihydroisoxazol-4-yl)phenyl)ciclopropanecarboxamide]

- IC50 [1]: 10 µM and 10.2 µM
- half-life [2]: 5.3 h
SMILES: Cc1ccc(-c2c(C)noc2OC(=O)c2cccc(C)c2)cc1 [Compound 8a, 3-Methyl-4-(p-tolyl)isoxazol-5-yl 3-methylbenzoate]

- IC50 [1]: 0.42 ± 0.13 µM
- melting point: 98 to 100 °C
SMILES: Cc1cccc(C(=O)Oc2onc(C)c2-c2ccc(C#N)cc2)c1 [Compound 8b, 4-(4-Cyanophenyl)-3-methylisoxazol-5-yl 3-methylbenzoate]

- IC50 [1]: 0.54 ± 0.11 µM
- half-life [2]: 2.9 h
- mechanism of HNE inhibition (HNE [4]): competitive
- melting point: 57 to 60 °C
SMILES: CC(=O)Nc1ccc(-c2c(C)noc2OC(=O)c2cccc(C)c2)cc1 [Compound 8d, 4-(4-Acetamidophenyl)-3-methylisoxazol-5-yl3-methylbenzoate]

- IC50 [1]: 0.62 ± 0.21 µM
- half-life [2]: 5.6 h
- melting point: 80 to 82 °C
SMILES: Cc1cccc(C(=O)Oc2onc(C)c2-c2ccc(NC(=O)C3CC3)cc2)c1 [Compound 8e, 4-(4-(Ciclopropanecarboxamido)phenyl)-3-methylisoxazol-5-yl3-me-thylbenzoate]

- IC50 [1]: 25.1 ± 3.6 µM
SMILES: CCC(=O)n1oc(=O)c2ccccc21 [Compound 10a, 1-Propionylbenzo[c]isoxazol-3(1H)-one]

- HNE inhibitory activity, result in words [1]: inactive
SMILES: CCCCC(=O)n1oc(=O)c2ccccc21 [Compound 10b, 1-Pentanoylbenzo[c]isoxazol-3(1H)-one]

- IC50 [1]: 0.638 ± 0.121 µM
- melting point: 116 to 119 °C
SMILES: Cc1cccc(C(=O)n2oc(=O)c3ccccc32)c1 [Compound 10c, 1-(3-Methylbenzoyl)benzo[c]isoxazol-3(1H)-one]
